From ChEMBL document CHEMBL1201862, “PubChem BioAssay data set” (2004)
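Growth conditions: 96-well plates. Treatment: test compound, 48 hours, 5 concentrations. Analysis: linear interpolation between bracketing concentrations; unreached endpoints set to highest concentration. Abbreviation: GI50, concentration required for 50% inhibition of growth.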 The source made the active and inactive calls. Rule as the data show it: active = GI50 up to about 1.1 µM and inactive = higher.

How the values were obtained:
Test in all cases: NCI tumour cell line growth inhibition, 48 h
SNB-19 = system: SNB-19
SK-OV-3 = system: SK-OV-3
UO-31 = system: UO-31
SK-MEL-28 = system: SK-MEL-28
SR = system: SR
TK-10 = system: TK-10
HCC 2998 = system: HCC 2998
786-0 = system: 786-0
SF-295 = system: SF-295
KM12 = system: KM12
NCI-H460 = system: NCI-H460
SF-268 = system: SF-268
RPMI-8226 = system: RPMI-8226
COLO 205 = system: COLO 205
OVCAR-8 = system: OVCAR-8
ACHN = system: ACHN
SF-539 = system: SF-539
NCI/ADR-RES = system: NCI/ADR-RES
MCF7 = system: MCF7

SMILES	GI50 (SNB-19)	GI50 (SK-OV-3)	GI50 (UO-31)	GI50 (SK-MEL-28)	GI50 (SR)	GI50 (TK-10)	GI50 (HCC 2998)	GI50 (786-0)	GI50 (SF-295)	GI50 (KM12)	GI50 (NCI-H460)	GI50 (SF-268)	GI50 (RPMI-8226)	GI50 (COLO 205)	GI50 (OVCAR-8)	GI50 (ACHN)	GI50 (SF-539)	GI50 (NCI/ADR-RES)	GI50 (MCF7)
COc1cccc(/C(C=O)=C(\Cl)c2ccc(OC)c(OC)c2)c1	3.94 µM (inactive)	26.1 µM (inactive)	14.5 µM (inactive)	15.1 µM (inactive)	13.5 µM (inactive)	28.1 µM (inactive)	16.1 µM (inactive)	16.1 µM (inactive)	15.2 µM (inactive)	15.7 µM (inactive)	13.3 µM (inactive)	11.7 µM (inactive)	11.5 µM (inactive)	14.5 µM (inactive)	13.8 µM (inactive)	13.6 µM (inactive)	16.6 µM (inactive)	–	–
Nn1c(CCCl)nc2c(Br)cc(Br)cc2c1=O	51.9 µM (inactive)	33.1 µM (inactive)	25.1 µM (inactive)	37.2 µM (inactive)	20.3 µM (inactive)	34.3 µM (inactive)	40.2 µM (inactive)	27.7 µM (inactive)	31.7 µM (inactive)	18.7 µM (inactive)	25.3 µM (inactive)	37.1 µM (inactive)	24.4 µM (inactive)	23.9 µM (inactive)	41.5 µM (inactive)	22.9 µM (inactive)	40.7 µM (inactive)	–	–
CN(C)c1ccc(C(=C2C=CC(=[N+](C)C)C=C2)c2ccc(N(C)C)cc2)cc1 [GENTIAN VIOLET]	0.347 µM (active)	0.224 µM (active)	0.318 µM (active)	0.53 µM (active)	0.211 µM (active)	–	0.216 µM (active)	0.0923 µM (active)	0.0402 µM (active)	0.0942 µM (active)	0.0574 µM (active)	0.133 µM (active)	0.0237 µM (active)	0.189 µM (active)	–	0.175 µM (active)	0.258 µM (active)	–	–
COC(=O)C1=Cc2c(cc(OC)c(OC)c2OC)[C@H](c2ccc(OC)c(OC)c2OC)C1C(=O)OC (stereo not given in full)	> 100 µM (inactive)	> 100 µM (inactive)	47.1 µM (inactive)	> 100 µM (inactive)	46.7 µM (inactive)	> 100 µM (inactive)	> 100 µM (inactive)	> 100 µM (inactive)	65.9 µM (inactive)	> 100 µM (inactive)	> 100 µM (inactive)	> 100 µM (inactive)	89.5 µM (inactive)	55.7 µM (inactive)	> 100 µM (inactive)	> 100 µM (inactive)	> 100 µM (inactive)	–	–
COC1=CCC2=C(CCN(C(=O)C3CCC3)C2Cc2ccc(OC)c(O)c2)C1 (stereo not given)	35.8 µM (inactive)	20.5 µM (inactive)	–	45.3 µM (inactive)	5.69 µM (inactive)	17.5 µM (inactive)	15.1 µM (inactive)	18.2 µM (inactive)	15.9 µM (inactive)	6.18 µM (inactive)	12.2 µM (inactive)	33.1 µM (inactive)	29.4 µM (inactive)	16 µM (inactive)	37.2 µM (inactive)	35.4 µM (inactive)	30.5 µM (inactive)	9.82 µM (inactive)	7.14 µM (inactive)
Cn1c2ccccc2c2cc(-c3ccccc3)c3c(c21)C(=O)c1ccccc1C3=O	61.1 µM (inactive)	38.3 µM (inactive)	11 µM (inactive)	14.7 µM (inactive)	4.79 µM (inactive)	48.3 µM (inactive)	48.8 µM (inactive)	16.9 µM (inactive)	21.5 µM (inactive)	21.5 µM (inactive)	–	19.1 µM (inactive)	4.67 µM (inactive)	31.5 µM (inactive)	18.2 µM (inactive)	–	22.9 µM (inactive)	–	–
O=C1Nc2ccccc2/C1=N/Nc1nc(-c2ccccc2)cs1	29.9 µM (inactive)	59 µM (inactive)	24.7 µM (inactive)	36.1 µM (inactive)	–	31.9 µM (inactive)	52.5 µM (inactive)	26.4 µM (inactive)	24.5 µM (inactive)	30.3 µM (inactive)	14.7 µM (inactive)	–	–	42.4 µM (inactive)	40.1 µM (inactive)	24.5 µM (inactive)	10.1 µM (inactive)	20.5 µM (inactive)	27.2 µM (inactive)
CC1(C)OCN(c2ccc(S(N)(=O)=O)cc2)Cn2c1nc1ccccc12	> 100 µM (inactive)	> 100 µM (inactive)	> 100 µM (inactive)	> 100 µM (inactive)	> 100 µM (inactive)	> 100 µM (inactive)	> 100 µM (inactive)	> 100 µM (inactive)	> 100 µM (inactive)	> 100 µM (inactive)	> 100 µM (inactive)	> 100 µM (inactive)	> 100 µM (inactive)	> 100 µM (inactive)	> 100 µM (inactive)	> 100 µM (inactive)	> 100 µM (inactive)	–	–
CN(C)c1ccc(C(=C(c2ccc(N(C)C)cc2)c2ccc(N(C)C)cc2)c2ccc(N(C)C)cc2)cc1	13.8 µM (inactive)	20.8 µM (inactive)	17.4 µM (inactive)	14.3 µM (inactive)	9.04 µM (inactive)	16 µM (inactive)	16 µM (inactive)	11.4 µM (inactive)	13.9 µM (inactive)	18.5 µM (inactive)	15.8 µM (inactive)	21.5 µM (inactive)	7 µM (inactive)	0.568 µM (active)	19.6 µM (inactive)	11.5 µM (inactive)	13.8 µM (inactive)	–	–
COC(=O)C1(NC(=O)C(Cc2ccccc2)N(C(=O)OC(C)(C)C)C(=O)OC(C)(C)C)CCCC1 (stereo not given)	> 100 µM (inactive)	> 100 µM (inactive)	64 µM (inactive)	> 100 µM (inactive)	> 10 µM (inactive)	32.7 µM (inactive)	19.9 µM (inactive)	> 10 µM (inactive)	–	–	46.1 µM (inactive)	> 100 µM (inactive)	20 µM (inactive)	> 100 µM (inactive)	43.9 µM (inactive)	> 10 µM (inactive)	> 100 µM (inactive)	22.3 µM (inactive)	27.5 µM (inactive)
Cc1ccc(S(=O)OC2C3CC4CC(C3)CC2C4)cc1 (stereo not given)	> 100 µM (inactive)	> 100 µM (inactive)	> 100 µM (inactive)	> 100 µM (inactive)	> 100 µM (inactive)	> 100 µM (inactive)	> 100 µM (inactive)	> 100 µM (inactive)	> 100 µM (inactive)	> 100 µM (inactive)	> 100 µM (inactive)	> 100 µM (inactive)	> 100 µM (inactive)	> 100 µM (inactive)	> 100 µM (inactive)	> 100 µM (inactive)	> 100 µM (inactive)	–	–
Oc1ccc2c(O)cc(-c3ccccc3)nc2c1	32.4 µM (inactive)	28.4 µM (inactive)	19.3 µM (inactive)	38.3 µM (inactive)	38.1 µM (inactive)	40.7 µM (inactive)	34 µM (inactive)	31.2 µM (inactive)	75 µM (inactive)	22.2 µM (inactive)	17.8 µM (inactive)	32.4 µM (inactive)	17.5 µM (inactive)	17 µM (inactive)	32.7 µM (inactive)	21.4 µM (inactive)	37.2 µM (inactive)	–	–
